Laboratory results as given in patent US8789785B2, “Device for micronization of solid materials and its use” (Lambano Trading Limited, priority 2010, dated 2014).

Assay: bioavailability of the substance micronized with the device
Format: in vivo
Details: after micronization with the device from the present invention
Text: As an example of pharmaceutically active substance herein is mentioned anti-inflammatory substance alclometasone-17,21-dipropionate which was successfully micronized with the device from the present invention yielding the product of increased bioavailability.

bioavailability of the micronized product: increased
SMILES: CCC(=O)OCC(=O)[C@@]1(OC(=O)CC)[C@H](C)C[C@H]2[C@H]3[C@H]([C@@H](O)C[C@@]21C)[C@@]1(C)C=CC(=O)C=C1C[C@H]3Cl [alclometasone-17,21-dipropionate]
